How the values were obtained:
NMDA-activated currents = experiment: Electrophysiological characterisation of NMDA-activated currents in freshly isolated hippocampal neurones (whole-cell patch clamp); type: cell-based, Wistar rats; details: for % Inhibition Peak Current / % Inhibition Steady State Current: 1 μM substance, 10 μM glycine, 300 μM L-aspartate, holding potential −70 mV, mean of at least 4 cells; for blocking activity on NMDA-activated currents (in words): summary of Table 3, 1 μM
Procedure: Isolation of hippocampal neurons: Wistar rats (12-14 days) were decapitated without anesthesia and the hippocampus was removed. It was manually cut into slices (0.2-0.4 mm), in a solution containing (mM): 150 NaCl; 5 KCL; 1.25 NaH2PO4; 2 CaCl2; 2 MgCl2; 26 NaHCO3; 20 glucose. Slices were preincubated in this solution for 30 min at room temperature. The enzymatic treatment proceeded in the same solution with lower Ca^2+ concentration (0.5 mm) containing 0.4 mg/ml protease from aspergillus oryzae. The incubation in the enzyme solution proceeded at 32° C. within 10 min. Slices were kept subsequently in enzyme-free solution containing normal Ca^2±concentration and used within 6-8 h for obtaining isolated neurons. Throughout the entire procedure the solutions were continuously saturated with a 95% O2 and 5% CO2 gas mixture to maintain pH of 7.4. For cell dissociation the slice was transferred into the extracellular solution containing (mM): 150 NaCl; 5 KCl; 2 CaCl2; 10 n-2-hydroxyethylpiperazine-n′-2-ethanesulphonic acid (Hepes); pH adjusted with NaOH to 7.4. Single cells were isolated from CA and CA3 zones of hippocampal slices by vibrodissociation method. […] After isolation they were usually suitable for the recording for 1-2 h.
Salines and chemicals: The contents of the extracellular solution was as follows (in mM): 130 NaCl, 5KCl, 2CaCl2, 20 n-2-hydroxyethylpiperazine-n′-2-ethansulfonic acid (Hepes); 0.1 μm TTX, 10 μm glycine, […] 1-aspartate; pH was adjusted with NaOH to 7.4.
The contents of the intracellular solution were as follows (in mM): 110 CsF, 20 Tris-HCl (pH=7.2). L-aspartate and glycine solutions were prepared on the day of experiment.
The tested substances were dissolved in DMSO.
Current recording and data analysis: The drug-containing solutions were applied by the fast “concentration clamp” method using “jumping table” set-up. The currents were recorded with patch clamp technique in the whole-cell configuration. Recording of the currents was performed using EPC-7 L/M patch-clamp amplifier.
NMDA-activated currents: The currents were filtered at 3 kHz (three-pole active Bessel filter) digitally sampled at the rate 6000 μs per point for NMDA activated currents. NMDA-induced transmembrane currents were measured in the presence of 10 μM glycine and 300 μM L-aspartate in the control and test solutions. The currents were recorded at holding potential −70 mV.
Calculations: The inhibition of current at 1 μM of the substance was averaged at least for 4 cells. The effect of substance was measured as the mean ratio I/Io where I was the current under the action of substance and Io was the current in control conditions.

MPTP-treated mice = experiment: Anti-Parkinsonian activity in MPTP-treated mice with a sub threshold dose of L-DOPA (motor activity counts); type: in vivo, C57 BL/6 mice; details: for reversal of the motor deficits of MPTP-treated mice (in words): 3 mg/kg, combined with a sub-threshold (inactive) dose of L-Dopa; for LOCOMOTION / REARING / TOTAL ACTIVITY: MPTP-treated mice (2×40 mg/kg s.c.), compound 3 mg/kg orally + 5 mg/kg L-Dopa s.c., counts with Vehicle (no MPTP) = 100%
Procedure: Animals: six month old male C57 BL/6 mice, weighing 22-25 g were used. Following arrival at the laboratory, the mice were allowed to acclimatize for two weeks in a room with controlled temperature (21±1° C.), and a constant light-dark schedule (12 hr on/12 hr off, lights on between 06.00 and 18.00 hrs). Free access to food and water was maintained throughout. They were housed in groups of 12 animals and tested only during the hours of light (08.00-15.00 hrs). All testing was performed in a normally lighted room.
Behavioural measurements and apparatus: An automated device, consisting of macrolon rodent test cages (40×25×15 cm), each placed within two series of infra-red beams (at two different heights, one low and one high, 2 and 8 cm, respectively, above the surface of the sawdust, 1 cm deep), was used to measure spontaneous and/or drug-induced motor activity of 1-methyl 4-phenyl 1,2,3,6-tetrahydropyridine (MPTP) and control mice. The following parameters were measured: LOCOMOTION was measured by the low grid of infrared beams. Counts were registered only when the mouse in the horizontal plane, ambulating around the test-cage. REARING was registered throughout the time when at least one high level beam was interrupted, i.e. the number of counts registered was proportional to the amount of time spent rearing. TOTAL ACTIVITY was measured by a sensor (a pick-up similar to a gramophone needle, mounted on a lever with a counterweight) with which the test cage was constantly in contact. The sensor registered all types of vibration received from the test cage, such as those produced both by locomotion and rearing as well as shaking, tremors, scratching and grooming.
Behavioral measurements (locomotion, rearing and total activity): Twelve days after MPTP injections (2×40 mg/kg, s.c., 24 hr interval), the mice were administered orally with the different compounds at 3 mg/kg or vehicle (0.1% Tween-80 in 1% methylcellulose) and immediately thereafter placed in the activity test chambers and their motor behaviors were monitored for 60 min. After 60 min, the mice were injected with 5 mg/kg L-Dopa (s.c) and then replaced in the test chamber and activity measurements maintained for an additional 300 min.
Table 2 presents the locomotion, rearing and total activity counts of MPTP-treated and control mice administered either tested substances or vehicle administered with a sub threshold dose of L-Dopa.

GSK3β = biological target: T1, GSK3β (Homo sapiens, UniProt P49841); experiment: Evaluation of GSK3β activity: inhibition of purified GSK3β, [γ-32P]ATP / GS-2 peptide filter assay; type: biochemical; details: for IC50: purified GSK3β expressed in Sf9 cells, 15 μM ATP, GS-2 peptide substrate, 30 min at 30° C.; for inhibiting activity on GSK3β activity (in words): summary of Table 1
T1 construct: made in house; host or cells: insect Sf9 cells
T1 sequence (P49841 whole entry, species assumed): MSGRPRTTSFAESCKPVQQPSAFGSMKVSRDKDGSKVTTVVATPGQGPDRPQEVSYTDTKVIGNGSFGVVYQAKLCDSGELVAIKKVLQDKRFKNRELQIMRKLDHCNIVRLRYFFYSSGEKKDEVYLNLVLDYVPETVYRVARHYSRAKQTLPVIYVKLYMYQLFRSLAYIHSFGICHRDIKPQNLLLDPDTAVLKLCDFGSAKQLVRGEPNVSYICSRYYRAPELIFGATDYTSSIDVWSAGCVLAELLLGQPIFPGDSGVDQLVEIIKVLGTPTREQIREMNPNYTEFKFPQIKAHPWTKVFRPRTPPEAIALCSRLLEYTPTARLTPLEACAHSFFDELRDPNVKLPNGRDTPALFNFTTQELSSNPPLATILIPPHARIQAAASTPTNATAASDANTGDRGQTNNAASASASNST
Procedure: Compounds were evaluated for inhibition against purified GSK3β. GSK3β was expressed in and purified from insect Sf9 cells. Compounds (10 μM) were assayed; following a 1/100 dilution of the enzyme in 1 mg/ml BSA, 10 mM DTT, with 5 μl of 40 μM GS-2 peptide as a substrate, in a buffer, in the presence of 15 μM [γ-^32P]ATP (3000 Ci/mmol; 1 mCi/ml) in a final volume of 30 μl. After 30-min incubation at 30° C., 25-μl aliquots of supernatant were spotted onto 2.5×3 cm pieces of Whatman P81 phosphocellulose paper, and, 20 s later, the filters were washed five times (for at least 5 min each time) in a solution of 10 ml of phosphoric acid/liter of water. The wet filters were counted in the presence of 1 ml of scintillation fluid.

Row | IC50 (GSK3β) [µM] | inhibiting activity on GSK3β activity (in words) (GSK3β) | SMILES | % Inhibition Peak Current (NMDA-activated currents) [%] | % Inhibition Steady State Current (NMDA-activated currents) [%] | blocking activity on NMDA-activated currents (in words) (NMDA-activated currents) | reversal of the motor deficits of MPTP-treated mice (in words) (MPTP-treated mice) | LOCOMOTION (MPTP-treated mice) [%] | REARING (MPTP-treated mice) [%] | TOTAL ACTIVITY (MPTP-treated mice) [%]
1 |  |  | O=C(O)c1ccc(NCCc2c[nH]c3ccccc23)c([N+](=O)[O-])c1 [N-(4-Carboxy-2-nitrophenyl)-tryptamine] | 101.6 | 92.84 |  |  |  |  | 
2 |  |  | O=[N+]([O-])c1cc(Br)ccc1NCCc1c[nH]c2ccccc12 [N-(2-nitro-4-bromophenyl)-tryptamine] | 95.8 | 83 | significant blocking activity |  |  |  | 
3 |  |  | CS(=O)(=O)c1ccc(NCCC(=O)c2ccccc2N)c([N+](=O)[O-])c1 [2-(2-aminobenzoyl)-N-2-nitro-4-methylsulfonyl-phenylethylamine] |  |  |  | significantly reversed the motor deficits | 54 | 100 | 72
4 |  |  | Nc1ccccc1C(=O)CCNc1ccc(Br)cc1[N+](=O)[O-] [2-(2-aminobenzoyl)-N-2-nitro-4-bromo-phenylethylamine] | 90.85 | 88.77 |  |  |  |  | 
5 |  |  | COc1ccc2[nH]cc(CCNc3ccc(Br)cc3[N+](=O)[O-])c2c1 [N-(4-bromo-2-nitrophenyl)-5-methoxytryptamine] | 104.2 | 78.18 | significant blocking activity |  | 16 | 24 | 46
6 | 14.8 | significant inhibiting activity | N#Cc1ccc(NCCc2c[nH]c3ccccc23)cc1C#N [N-(3,4-dicyanophenyl)-tryptamine] | 93.4 | 66.4 | significant blocking activity |  | 18 | 25 | 47
7 | 16.8 | significant inhibiting activity | COc1ccc2[nH]cc(CCNc3ccc(C#N)c(C#N)c3)c2c1 [N-(3,4-dicyanophenyl)-5-methoxytryptamine] | 84.4 | 78.4 | significant blocking activity |  | 19 | 27 | 48
8 |  |  | COc1ccc2[nH]cc(CCNc3ccc([N+](=O)[O-])cc3C#N)c2c1 [N-(2-cyano-4-nitrophenyl)-5-methoxytryptamine] | 96.21 | 88.21 |  |  |  |  | 
9 |  |  | COc1ccc2[nH]cc(CCNc3ccc([N+](=O)[O-])cc3C(=O)O)c2c1 [N-(2-Carboxy-4-nitrophenyl)-5-methoxytryptamine] | 84 | 93.6 |  |  |  |  | 
10 |  |  | Nc1ccccc1C(=O)CCNc1ccc([N+](=O)[O-])cc1Br [2-(2-aminobenzoyl)-N-2-bromo-4-nitro-phenylethylamine] | 86.23 | 90.78 |  |  |  |  | 
11 | 18.5 |  | Nc1ccccc1C(=O)CCNc1ccccc1[N+](=O)[O-] [2-(2-aminobenzoyl)-N-2-nitrophenylethylamine] |  |  |  |  | 17.6 | 25 | 45
12 |  |  | COc1ccc2[nH]cc(CCNc3ccc(S(C)(=O)=O)cc3[N+](=O)[O-])c2c1 [N-(4-methylsulfonyl-2-nitrophenyl)-5-methoxytryptamine] |  |  |  | significantly reversed the motor deficits | 41 | 74 | 70
13 |  |  | COc1ccc2[nH]cc(CCNc3ccc([N+](=O)[O-])cc3Br)c2c1 [N-(2-bromo-4-nitrophenyl)-5-methoxytryptamine] | 91.53 | 86.57 |  |  |  |  | 
